The values that follow come from ChEMBL document CHEMBL3991601, “The target landscape of clinical kinase drugs” (Science, 2017).

Activity calls are given as the source filed them. Rule as the data show it, for most assays here: actives have a measured Kd and inactives only a lower limit. A value given as a limit tells only on which side of the number the result lay.

Assay [1] concerns the target Ribosomal protein S6 kinase alpha-3 (Homo sapiens, UniProt P51812).
Assay [2] deals with T1, STE20-related kinase adapter protein alpha (Homo sapiens, UniProt Q7RTN6).
T1 sequence (Q7RTN6 whole entry): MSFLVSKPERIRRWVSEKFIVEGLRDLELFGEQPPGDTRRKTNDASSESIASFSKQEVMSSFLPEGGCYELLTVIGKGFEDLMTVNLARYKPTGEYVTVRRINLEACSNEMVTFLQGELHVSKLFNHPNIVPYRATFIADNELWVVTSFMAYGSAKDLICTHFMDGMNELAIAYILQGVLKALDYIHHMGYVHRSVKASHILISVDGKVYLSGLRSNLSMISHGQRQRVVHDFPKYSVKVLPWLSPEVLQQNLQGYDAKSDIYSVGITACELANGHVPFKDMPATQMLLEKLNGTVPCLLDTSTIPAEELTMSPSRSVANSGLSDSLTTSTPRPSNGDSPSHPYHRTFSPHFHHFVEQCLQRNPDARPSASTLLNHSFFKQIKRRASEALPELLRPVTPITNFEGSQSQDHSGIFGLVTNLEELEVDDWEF

For assay [3], the target named is Calcium/calmodulin-dependent protein kinase kinase 2 (Homo sapiens, UniProt Q96RR4).
Calcium/calmodulin-dependent protein kinase kinase 2, sequence (Q96RR4 whole entry): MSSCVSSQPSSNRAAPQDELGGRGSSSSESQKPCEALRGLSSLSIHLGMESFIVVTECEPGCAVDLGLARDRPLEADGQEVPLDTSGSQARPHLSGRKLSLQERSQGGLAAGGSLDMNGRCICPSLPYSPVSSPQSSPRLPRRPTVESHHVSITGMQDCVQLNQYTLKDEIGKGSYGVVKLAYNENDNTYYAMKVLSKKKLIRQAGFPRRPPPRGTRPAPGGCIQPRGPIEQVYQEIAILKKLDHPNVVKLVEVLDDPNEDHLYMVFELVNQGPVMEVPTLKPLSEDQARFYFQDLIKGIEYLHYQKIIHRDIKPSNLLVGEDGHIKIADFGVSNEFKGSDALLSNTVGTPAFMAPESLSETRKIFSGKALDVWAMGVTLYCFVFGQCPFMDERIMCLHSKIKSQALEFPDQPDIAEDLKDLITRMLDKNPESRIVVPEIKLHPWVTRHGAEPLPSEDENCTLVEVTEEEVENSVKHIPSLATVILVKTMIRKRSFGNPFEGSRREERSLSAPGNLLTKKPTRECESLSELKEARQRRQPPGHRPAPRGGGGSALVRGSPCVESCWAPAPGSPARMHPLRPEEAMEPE
For assay [4], the target named is Serine/threonine-protein kinase/endoribonuclease IRE1 (Homo sapiens, UniProt O75460).
Serine/threonine-protein kinase/endoribonuclease IRE1, sequence (O75460 whole entry): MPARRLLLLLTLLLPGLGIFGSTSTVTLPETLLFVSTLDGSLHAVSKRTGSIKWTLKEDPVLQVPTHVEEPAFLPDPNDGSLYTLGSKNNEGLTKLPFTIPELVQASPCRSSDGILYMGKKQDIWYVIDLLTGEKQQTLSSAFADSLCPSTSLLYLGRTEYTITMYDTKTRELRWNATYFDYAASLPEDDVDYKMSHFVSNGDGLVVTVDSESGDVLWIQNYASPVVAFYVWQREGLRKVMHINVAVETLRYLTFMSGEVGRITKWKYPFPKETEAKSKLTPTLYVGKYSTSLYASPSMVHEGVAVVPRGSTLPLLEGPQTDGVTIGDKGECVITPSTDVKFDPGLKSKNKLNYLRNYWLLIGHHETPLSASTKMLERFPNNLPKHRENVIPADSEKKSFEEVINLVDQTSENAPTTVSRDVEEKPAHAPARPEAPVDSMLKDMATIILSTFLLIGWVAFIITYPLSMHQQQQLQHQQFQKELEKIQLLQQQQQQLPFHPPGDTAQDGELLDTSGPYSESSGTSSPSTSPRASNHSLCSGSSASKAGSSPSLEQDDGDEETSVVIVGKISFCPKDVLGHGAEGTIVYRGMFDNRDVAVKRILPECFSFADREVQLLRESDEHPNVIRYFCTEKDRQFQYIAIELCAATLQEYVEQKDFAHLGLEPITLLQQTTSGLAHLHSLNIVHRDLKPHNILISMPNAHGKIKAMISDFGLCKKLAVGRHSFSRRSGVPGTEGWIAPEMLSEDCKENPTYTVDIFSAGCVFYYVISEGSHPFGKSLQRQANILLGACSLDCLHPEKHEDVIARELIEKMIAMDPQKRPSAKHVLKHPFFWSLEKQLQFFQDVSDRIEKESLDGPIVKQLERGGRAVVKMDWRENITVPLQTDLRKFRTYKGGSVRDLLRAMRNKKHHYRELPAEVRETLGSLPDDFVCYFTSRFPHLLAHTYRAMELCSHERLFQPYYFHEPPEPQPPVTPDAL
Assay [5] deals with T2, Cyclin-G-associated kinase (Homo sapiens, UniProt O14976).
T2 sequence (O14976 whole entry): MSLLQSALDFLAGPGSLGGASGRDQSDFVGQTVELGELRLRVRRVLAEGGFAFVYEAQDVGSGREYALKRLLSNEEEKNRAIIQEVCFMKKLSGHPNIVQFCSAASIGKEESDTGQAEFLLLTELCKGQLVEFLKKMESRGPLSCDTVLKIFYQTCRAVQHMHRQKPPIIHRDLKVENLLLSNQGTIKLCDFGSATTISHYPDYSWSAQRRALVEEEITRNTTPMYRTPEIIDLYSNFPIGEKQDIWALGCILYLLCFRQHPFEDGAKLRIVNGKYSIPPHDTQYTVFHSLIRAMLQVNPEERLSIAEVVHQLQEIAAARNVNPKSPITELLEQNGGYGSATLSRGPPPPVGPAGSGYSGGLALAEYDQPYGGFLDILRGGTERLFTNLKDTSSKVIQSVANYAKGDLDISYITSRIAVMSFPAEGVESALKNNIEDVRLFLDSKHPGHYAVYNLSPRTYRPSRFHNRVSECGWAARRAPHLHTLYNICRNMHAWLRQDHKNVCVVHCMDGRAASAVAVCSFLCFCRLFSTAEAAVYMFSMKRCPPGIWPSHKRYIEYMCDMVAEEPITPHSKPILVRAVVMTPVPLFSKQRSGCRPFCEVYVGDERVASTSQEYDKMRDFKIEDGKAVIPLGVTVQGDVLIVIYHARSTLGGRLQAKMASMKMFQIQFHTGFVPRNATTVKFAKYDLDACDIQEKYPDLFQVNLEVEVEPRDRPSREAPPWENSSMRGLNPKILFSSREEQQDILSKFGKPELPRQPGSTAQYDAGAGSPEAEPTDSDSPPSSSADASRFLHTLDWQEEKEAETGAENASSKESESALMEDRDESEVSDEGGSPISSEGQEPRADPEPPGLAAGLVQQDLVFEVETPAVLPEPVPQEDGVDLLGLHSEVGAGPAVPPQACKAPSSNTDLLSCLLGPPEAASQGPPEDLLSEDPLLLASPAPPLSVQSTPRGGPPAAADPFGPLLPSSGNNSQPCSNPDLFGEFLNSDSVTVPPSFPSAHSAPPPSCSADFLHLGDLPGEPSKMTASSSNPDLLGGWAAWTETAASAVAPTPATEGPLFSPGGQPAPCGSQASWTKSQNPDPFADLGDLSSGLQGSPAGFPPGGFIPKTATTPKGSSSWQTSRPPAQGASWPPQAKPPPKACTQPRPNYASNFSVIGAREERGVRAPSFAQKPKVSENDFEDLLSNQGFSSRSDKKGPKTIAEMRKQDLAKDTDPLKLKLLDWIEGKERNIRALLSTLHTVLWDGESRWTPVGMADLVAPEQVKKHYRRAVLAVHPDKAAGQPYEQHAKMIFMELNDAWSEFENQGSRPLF

The target of assay [6] is Adenylate kinase 2, mitochondrial (Homo sapiens, UniProt P54819).
Assay [7] deals with cAMP-dependent protein kinase catalytic subunit gamma (Homo sapiens, UniProt P22612).
cAMP-dependent protein kinase catalytic subunit gamma, sequence (P22612 whole entry): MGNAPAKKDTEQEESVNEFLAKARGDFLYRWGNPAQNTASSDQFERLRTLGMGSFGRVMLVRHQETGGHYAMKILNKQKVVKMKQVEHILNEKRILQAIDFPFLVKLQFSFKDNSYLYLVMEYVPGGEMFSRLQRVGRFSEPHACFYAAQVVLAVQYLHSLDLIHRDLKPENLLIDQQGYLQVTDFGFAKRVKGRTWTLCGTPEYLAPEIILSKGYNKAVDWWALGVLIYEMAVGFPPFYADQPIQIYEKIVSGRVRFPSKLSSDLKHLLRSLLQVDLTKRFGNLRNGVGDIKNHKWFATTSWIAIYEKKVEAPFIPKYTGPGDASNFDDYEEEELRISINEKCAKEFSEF
A further assay addresses T3, Glycine--tRNA ligase (Homo sapiens, UniProt P41250).
T3 sequence (P41250 whole entry): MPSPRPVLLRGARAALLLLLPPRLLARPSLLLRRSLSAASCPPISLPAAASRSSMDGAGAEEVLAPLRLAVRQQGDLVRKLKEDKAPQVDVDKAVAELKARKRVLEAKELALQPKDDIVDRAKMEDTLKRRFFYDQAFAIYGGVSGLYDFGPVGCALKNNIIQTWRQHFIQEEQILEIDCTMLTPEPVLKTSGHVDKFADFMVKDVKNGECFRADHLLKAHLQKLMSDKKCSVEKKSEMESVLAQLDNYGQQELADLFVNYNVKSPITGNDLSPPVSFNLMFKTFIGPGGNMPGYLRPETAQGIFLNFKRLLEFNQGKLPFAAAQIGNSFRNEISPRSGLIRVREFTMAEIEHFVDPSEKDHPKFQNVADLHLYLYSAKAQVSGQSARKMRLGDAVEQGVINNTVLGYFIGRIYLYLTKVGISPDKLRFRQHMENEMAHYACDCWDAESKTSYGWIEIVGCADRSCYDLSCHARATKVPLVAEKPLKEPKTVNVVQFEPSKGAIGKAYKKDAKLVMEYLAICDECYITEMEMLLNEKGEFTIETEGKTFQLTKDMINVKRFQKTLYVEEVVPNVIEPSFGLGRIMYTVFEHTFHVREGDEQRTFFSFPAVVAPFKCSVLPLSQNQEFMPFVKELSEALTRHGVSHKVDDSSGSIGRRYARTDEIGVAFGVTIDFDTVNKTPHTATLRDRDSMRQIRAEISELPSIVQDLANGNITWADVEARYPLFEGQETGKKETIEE

Assay [8] deals with Serine/threonine-protein kinase 16 (Homo sapiens, UniProt O75716).
Serine/threonine-protein kinase 16, sequence (O75716 whole entry): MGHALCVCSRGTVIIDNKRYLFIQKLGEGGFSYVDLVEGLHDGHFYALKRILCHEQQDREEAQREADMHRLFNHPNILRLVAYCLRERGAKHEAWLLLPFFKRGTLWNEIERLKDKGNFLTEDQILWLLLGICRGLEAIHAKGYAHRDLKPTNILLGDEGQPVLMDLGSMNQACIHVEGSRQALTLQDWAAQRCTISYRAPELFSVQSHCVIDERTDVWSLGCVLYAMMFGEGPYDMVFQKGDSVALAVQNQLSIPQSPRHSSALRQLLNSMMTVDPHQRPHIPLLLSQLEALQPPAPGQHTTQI
Also: in the data inactive means no Kd found up to 30 µM.

Ribosomal protein S6 kinase alpha-3, sequence (P51812 whole entry): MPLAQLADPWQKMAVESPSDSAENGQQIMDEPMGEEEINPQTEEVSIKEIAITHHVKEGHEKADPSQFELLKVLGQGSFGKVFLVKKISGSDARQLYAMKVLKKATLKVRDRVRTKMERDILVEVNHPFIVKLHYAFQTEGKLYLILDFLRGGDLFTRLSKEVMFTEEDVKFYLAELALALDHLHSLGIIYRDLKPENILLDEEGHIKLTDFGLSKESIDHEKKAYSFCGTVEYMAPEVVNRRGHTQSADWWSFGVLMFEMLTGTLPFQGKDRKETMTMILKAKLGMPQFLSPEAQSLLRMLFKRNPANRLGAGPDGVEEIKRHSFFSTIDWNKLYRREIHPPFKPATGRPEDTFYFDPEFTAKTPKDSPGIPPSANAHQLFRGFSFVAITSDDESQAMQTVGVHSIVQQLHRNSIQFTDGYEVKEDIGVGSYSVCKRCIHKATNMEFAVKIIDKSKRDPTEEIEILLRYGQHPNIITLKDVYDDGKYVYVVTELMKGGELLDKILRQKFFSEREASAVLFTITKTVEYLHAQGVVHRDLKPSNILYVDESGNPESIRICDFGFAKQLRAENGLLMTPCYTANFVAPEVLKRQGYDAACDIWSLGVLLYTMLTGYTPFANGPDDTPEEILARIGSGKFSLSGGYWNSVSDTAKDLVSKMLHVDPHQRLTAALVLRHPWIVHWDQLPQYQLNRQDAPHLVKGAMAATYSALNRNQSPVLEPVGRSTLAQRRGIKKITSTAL

As for `C[C@@H](Oc1cc(C(=O)Nc2ccc(C(=O)N3CCN(C)CC3)cc2)nnc1N)c1c(Cl)ccc(F)c1Cl`, the Kd in assay [1], in assay [2], in [3], in assay [4], in assay [5] and in assay [6] was > 30 µM (inactive) each time. The Kd (in assay [7]; at Glycine--tRNA ligase; in assay [8]) was > 30 µM (inactive) each time.
Regarding `Nc1ncnc2c1c(-c1cccc(OCc3ccccc3)c1)cn2[C@H]1C[C@@H](CN2CCC2)C1` [AEW-541], the Kd in assay [1], in assay [2], in [3], in assay [4], in assay [5] and in assay [6] was > 30 µM (inactive) each time. For the same molecule, the Kd (in assay [7]; at Glycine--tRNA ligase; in assay [8]) was > 30 µM (inactive) each time.
Turning to `Cc1nc(NC(=O)N2CCC[C@H]2C(N)=O)sc1-c1ccnc(C(C)(C)C(F)(F)F)c1` [ALPELISIB], the Kd in assay [1] was > 30 µM (inactive); in assay [2], > 30 µM (inactive); in assay [3] it was > 30 µM (inactive); in assay [4], > 30 µM (inactive); in assay [5], 4.97 µM (active); in assay [6], > 30 µM (inactive). In addition, the figures for the Kd (in assay [7]; at Glycine--tRNA ligase; in [8]) were 1.99 µM (active), > 30 µM (inactive) and > 30 µM (inactive), respectively.
For `Cc1csc(-c2nnc(Nc3ccc(Oc4ncccc4-c4ccnc(N)n4)cc3)c3ccccc23)c1` [AMG-900], the Kd in assay [1], in assay [2], in assay [3], in assay [4], in assay [5] and in assay [6] was > 30 µM (inactive) each time. The Kd (in assay [7]; on Glycine--tRNA ligase; in [8]) was > 30 µM (inactive) each time.
Take `C=CC(=O)Nc1cc2c(Nc3ccc(F)c(Cl)c3)ncnc2cc1C#CC(C)(C)N1CCN(C)CC1` [AV-412 FREE BASE]: the Kd in assay [1], in [2], in assay [3], in assay [4], in [5] and in assay [6] was > 30 µM (inactive) throughout. Moreover, the Kd (in [7]; on Glycine--tRNA ligase; in [8]) was > 30 µM (inactive) each time.
On to `COc1cc([C@@H]2c3cc4c(cc3[C@H](O)[C@H]3COC(=O)[C@@H]23)OCO4)cc(OC)c1OC` [AXL-1717], for which the Kd in [1], in assay [2], in [3], in [4], in assay [5] and in assay [6] was > 30 µM (inactive) throughout. The Kd (in assay [7]; on Glycine--tRNA ligase; in [8]) was > 30 µM (inactive) in each case.
With `Cc1cc(C(=O)NOCCO)c(Nc2ccc(I)cc2F)n(C)c1=O` [AZD-8330], the Kd in assay [1], in assay [2], in [3], in assay [4], in [5] and in assay [6] was > 30 µM (inactive) throughout. In addition, the Kd (in assay [7]; at Glycine--tRNA ligase; in assay [8]) was > 30 µM (inactive) throughout.
On to `Cn1cnc2c(F)c(Nc3ccc(Br)cc3F)c(C(=O)NOCCO)cc21` [BINIMETINIB], for which the Kd in assay [1], in assay [2], in assay [3], in assay [4], in [5] and in assay [6] was > 30 µM (inactive) throughout. The Kd (in assay [7]; on Glycine--tRNA ligase; in assay [8]) was > 30 µM (inactive) each time.
With `CCn1c(C(=O)N(C2CC2)C2CC2)cc2c3c(ncn3C)c(Nc3cc(C)n(C)n3)nc21` [BMS-911543], the Kd in assay [1], in assay [2], in assay [3], in assay [4], in assay [5] and in assay [6] was > 30 µM (inactive) each time. Besides, the Kd (in [7]; at Glycine--tRNA ligase; in assay [8]) was > 30 µM (inactive) in each case.
`Cc1cc(Nc2ncc(Cl)c(Nc3ccccc3S(=O)(=O)C(C)C)n2)c(OC(C)C)cc1C1CCNCC1` [CERITINIB]: the Kd is > 30 µM (inactive) in [1]; > 30 µM (inactive) in assay [2]; 5.43 µM (active) in assay [3]; > 30 µM (inactive) in assay [4]; > 30 µM (inactive) in assay [5]; > 30 µM (inactive) in assay [6]. For the same molecule, the Kd (in [7]; at Glycine--tRNA ligase; in assay [8]) was > 30 µM (inactive) throughout.
Regarding `COc1c(OCCCN2CCOCC2)ccc2c1N=C(NC(=O)c1cnc(N)nc1)N1CCN=C21` [COPANLISIB], the Kd in assay [1], in assay [2], in [3], in [4], in assay [5] and in [6] was > 30 µM (inactive) in each case. Also, the Kd (in assay [7]; on Glycine--tRNA ligase; in assay [8]) was > 30 µM (inactive) throughout.

The term Kd denotes the equilibrium constant for the complex coming apart.
